Counter-ions that a name gives are not always drawn.
Target: Chk-1 kinase (Homo sapiens (Human), UniProt O14757)
Assay: Chk-1 kinase inhibiting activity (33P-ATP filter-binding kinase assay)
Type: biochemical
Details: against Chk-1 kinase; recombinant full length GST-tagged, 0.5 nM; CHKtide substrate 20 μM; 120 minutes at room temperature
Protocol: Chk-1 Kinase Inhibiting Activity
The compounds of the invention were tested for activity against Chk-1 kinase using the materials and protocols set out below.
Base Reaction buffer: 20 mM Hepes (pH 7.5), 10 mM MgCl2, 1 mM EGTA, 0.02% Brij35, 0.02 mg/ml BSA, 0.1 mM Na3VO4, 2 mM DTT, 1% DMSO • Required cofactors are added individually to each kinase reaction Reaction Procedure: (i) Prepare indicated substrate in freshly prepared Base Reaction Buffer (ii) Deliver any required cofactors to the substrate solution above (iii) Deliver indicated kinase into the substrate solution and gently mix (iv) Deliver compounds in DMSO into the kinase reaction mixture (v) Deliver ^33P-ATP (specific activity 0.01 μCi/μl final) into the reaction mixture to initiate the reaction. (vi) Incubate kinase reaction for 120 minutes at room temperature (vii) Reactions are spotted onto P81 ion exchange paper (Whatman #3698-915) (viii) Wash filters extensively in 0.1% phosphoric acid. (ix) Dry filters and measure counts in scintillation counter Kinase Information: CHK-1H—Genbank Accession # AF016582 Recombinant full length construct, N-terminal GST tagged, purified from insect cells. […]
From the results obtained by following the above protocol, the IC50 values against Chk-1 kinase of each of the compounds of Examples 1-153 were determined and these are shown in Table 3.

Chain of Chk-1 kinase (O14757 whole entry): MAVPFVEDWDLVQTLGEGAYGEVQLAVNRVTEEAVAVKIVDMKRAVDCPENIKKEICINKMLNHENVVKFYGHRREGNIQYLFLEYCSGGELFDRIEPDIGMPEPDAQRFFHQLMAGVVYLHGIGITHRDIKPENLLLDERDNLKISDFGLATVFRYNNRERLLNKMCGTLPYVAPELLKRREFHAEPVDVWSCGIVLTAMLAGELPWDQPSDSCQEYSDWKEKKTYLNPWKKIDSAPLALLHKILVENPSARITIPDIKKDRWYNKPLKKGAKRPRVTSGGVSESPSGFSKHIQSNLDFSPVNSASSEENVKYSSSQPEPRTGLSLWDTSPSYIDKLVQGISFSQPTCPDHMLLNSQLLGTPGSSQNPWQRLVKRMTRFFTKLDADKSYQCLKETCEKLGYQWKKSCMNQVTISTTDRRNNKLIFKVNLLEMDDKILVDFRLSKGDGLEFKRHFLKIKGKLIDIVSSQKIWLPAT

## COc1cc(CN2CC[C@H](OC)C2)ccc1-c1cc(Nc2cnc(C#N)cn2)n[nH]1 [Example 124, 5-[[5-[2-methoxy-4-[[(3S)-3-methoxypyrrolidin-1H-yl]methyl]phenyl]-1H-pyrazol-3-yl]amino]pyrazine-2-carbonitrile, hydrochloride]
  IC50: 0.25 nM

## COc1cc(CN2CC[C@@H](OC)C2)ccc1-c1cc(Nc2cnc(C#N)cn2)n[nH]1 [Example 125, 5-[[5-[2-methoxy-4-[[(3R)-3-methoxypyrrolidin-1H-yl]methyl]phenyl]-1H-pyrazol-3-yl]amino]pyrazine-2-carbonitrile, hydrochloride]
  IC50: 0.28 nM

From patent US10973817B2, “Pharmaceutical compounds” (SENTINEL ONCOLOGY LIMITED, priority 2014, dated 2021)
